US8871208B2, “11-β-hydroxysteroid dehydrogenase type 1 (11β-HSD1) inhibitors and uses thereof” (AbbVie Inc., priority 2009, dated 2014)
Where two headings read alike, the source gives them in different places. Marks after values point to notes of the source that are not given here. One block for each compound: values may come before it.

What was measured:
[1] = target: T1, human 11β-HSD-2 (Homo sapiens, UniProt P80365); test: Human 11β-HSD-2 enzymatic SPA assay; format: biochemical; conditions: human enzyme, SPA
T1 sequence (P80365 1-405): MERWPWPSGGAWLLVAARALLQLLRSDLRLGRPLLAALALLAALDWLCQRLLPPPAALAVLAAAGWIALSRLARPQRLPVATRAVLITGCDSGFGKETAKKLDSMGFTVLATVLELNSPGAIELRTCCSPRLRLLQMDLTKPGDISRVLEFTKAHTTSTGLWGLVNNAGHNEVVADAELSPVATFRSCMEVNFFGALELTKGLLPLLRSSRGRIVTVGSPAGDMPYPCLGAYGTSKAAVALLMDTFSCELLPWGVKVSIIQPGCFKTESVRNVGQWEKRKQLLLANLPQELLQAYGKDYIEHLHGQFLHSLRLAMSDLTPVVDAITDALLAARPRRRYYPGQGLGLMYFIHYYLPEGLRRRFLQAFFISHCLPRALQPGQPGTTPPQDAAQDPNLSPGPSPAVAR
Method: (§1) The ability of test compounds to inhibit human 11β-HSD-1 enzymatic activity in vitro was evaluated in a Scintillation Proximity Assay (SPA). […] The reaction was stopped by adding a non-specific 11β-HSD inhibitor, 18β-glycyrrhetinic acid. The tritiated cortisol was captured by a mixture of an anti-cortisol monoclonal antibody and SPA beads coated with anti-mouse antibodies. The reaction plate was shaken at room temperature and the radioactivity bound to SPA beads was then measured on a β-scintillation counter. The 11β-HSD-1 assay was carried out in 96-well microtiter plates in a total volume of 220 μl. […] In order to drive the reaction in the forward direction, 1 mM G-6-P was also added. Solid compound was dissolved in DMSO to make a 10 mM stock followed by a subsequent 10-fold dilution with 3% DMSO in Tris/EDTA buffer (pH 7.4). 22 μl of titrated compounds was then added in triplicate to the substrate. Reactions were initiated by the addition of 10 μl of 0.1 mg/ml E. coli lysates overexpressing 11β-HSD-1 enzyme. After shaking and incubating plates for 30 minutes at room temperature, reactions were stopped by adding 10 μl of 1 mM glycyrrhetinic acid. The product, tritiated cortisol, was captured by adding 10 μl of 1 μM monoclonal anti-cortisol antibodies and 100 μl SPA beads coated with anti-mouse antibodies. After shaking for 30 minutes, plates were read on a liquid scintillation counter Topcount. Percent inhibition was calculated based on the background and the maximal signal. Wells that contained substrate without compound or enzyme were used as the background, while the wells that contained substrate and enzyme without any compound were considered as maximal signal. Percent of inhibition of each compound was calculated relative to the maximal signal and IC50 curves were generated. This assay was applied to 11β-HSD-2 as well, whereby tritiated cortisol and NAD^+ were used as substrate and cofactor, respectively.

[2] = target: T2, truncated human 11β-HSD-1 enzyme (24-287AA) (Homo sapiens, UniProt P28845); test: Human 11β-HSD-1 enzymatic SPA assay; format: biochemical
T2 construct: truncated human 11β-HSD-1 enzyme (24-287AA); made in house; host or cells: E. coli (lysate)
T2 sequence (P28845 24-287): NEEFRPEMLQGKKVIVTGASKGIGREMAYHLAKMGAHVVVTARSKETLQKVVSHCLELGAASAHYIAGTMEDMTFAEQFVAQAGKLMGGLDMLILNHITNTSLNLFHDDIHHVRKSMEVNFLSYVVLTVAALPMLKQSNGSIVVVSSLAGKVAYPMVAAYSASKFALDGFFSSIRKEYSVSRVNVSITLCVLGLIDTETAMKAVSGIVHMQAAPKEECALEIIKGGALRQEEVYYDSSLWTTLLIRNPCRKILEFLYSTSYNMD
Method: as §1

[3] = tested on: TNFα; test: Mouse model of glucocorticoid-induced osteoporosis: LPS-induced TNFα; format: in vivo; conditions: mice, LPS 0.1 mg/kg challenge, diet with Compound B
Description: (§2) Purpose: The purpose of this experiment was to determine if inhibiting 11β-HSD-1 in mice results in protection from prednisolone-induced bone loss over a 28-day period, while maintaining the same anti-inflammatory efficacy against lipopolysaccharide(LPS)-induced TNFα.
(§3) Animals: Female Swiss Webster mice from Charles River Laboratories (CFW mice) were used in this study. Mice were 10 weeks old at the start of the study. Two identical prednisolone dose responses were run with a vehicle control (n=12), 5, 1.5, and 0.5 mg/kg dosed for 28 days (n=8 each), and 1.5 mg/kg dosed for 27 days (n=8, to determine if prednisolone needed to be on board to affect tumor necrosis factor-alpha(TNFα), procollagen type 1 N-terminal propeptide(P1NP), and Osteocalcin). […] The total number of animals used was 88.
(§4) Experimental Design: All animals were placed on the control diet (Research Diets Rodent Diet with 60 kcal % Fat: D12492i) upon arrival. […] Also on this day, animals were weighed for baselines and ear-tagged for identification. On day 1 of the study, all animals were injected intraperitoneally (i.p.) with 10 mg/kg of calcein (Sigma #C0875) in 2% sodium bicarbonate (Sigma #S6014, dissolved in deionized water). […] On day 27, 4 animals from each vehicle control group were challenged with 5 mg/kg of 11-dehydrocorticosterone (11-DHC [Steraloids #Q3690-000]) p.o., and plasma was collected 30 minutes later for corticosterone analysis by mass spec. […] Thirty minutes later, all groups were challenged with 0.1 mg/kg of LPS (Sigma #L4130) to induce TNFα. […] Right leg bones, left leg bones, and the spinal columns of all mice were collected and stored as follows:
TNFα was measured using the Mouse […] Quantikine ELISA kit from R&D Systems. The protocol was followed as outlined in the kit. Samples were read using a Molecular Devices Spectra Max 250 plate reader and Soft Max Pro 4.8 software.

[4] = tested on: Trabecular bone at Femoral Metaphysis; test: Mouse model of glucocorticoid-induced osteoporosis: femur histomorphometry; format: in vivo; conditions: mice, diet with Compound B
Description: as §2, §3, §4
Left leg bones were removed, cleaned, and cut identically to the right leg bones. However, left legs were separated at the knee joint by carefully teasing apart with a scalpel.
Femurs were fixed in 4% paraformaldehyde for 48 hours, and transferred to 30% sucrose for 24 hours before embedding in a CMC (carboxymethylcellulose) block. Blocks were frozen in liquid nitrogen-cooled hexanes (−60° C. or colder) for 3-5 minutes, and stored at −80° C. Femurs were then sectioned on a cryomicrotome.
Bone was measured from 8-10 fields per femur, with each field being 400×500 microns in size. All dynamic measurement calculations were made from scoring the second and third fluorochrome labels, which were administered 11 days apart. OsteoMeasure software was used to obtain all values.
Bone formation rate/bone volume (BFR/BV) refers to the volume of new bone formed per unit of time, and is measured as a percent per day. BFR is the most significant measure of bone formation.
Mineral apposition rate (MAR) refers to the distance between two fluorochrome labels divided by the number of days between label administration, and is indicative of osteoblastic activity.
Double labeled surface/bone surface (dLS/BS) refers to the percentage of trabecular bone surface which is double-labeled, and is another readout indicative of bone formation.

[5] = tested on: P1NP (N-terminal propeptide of type I procollagen); test: Mouse model of glucocorticoid-induced osteoporosis: plasma P1NP; format: in vivo; conditions: mice, diet with 873 mg Compound B/kg
Description: as §2, §3, §4
N-terminal propeptide of type I procollagen (PINP) was measured using the Rat/Mouse PINP EIA kit from Immunodiagnostic Systems. The protocol was followed as outlined in the kit, except for that sample dilutions were made in a separate plate instead of directly in the ELISA plate. Samples were read using a Molecular Devices Spectra Max 190 plate reader and Soft Max Pro 5.2 software.

[6] = tested on: Osteocalcin; test: Mouse model of glucocorticoid-induced osteoporosis: plasma osteocalcin; format: in vivo; conditions: mice, diet with Compound B
Description: as §2, §3, §4
Osteocalcin was measured using the Millipore Milliplex Mouse Osteocalcin Single-Plex Kit. The protocol was followed exactly as outlined in the kit. Samples were read on a BioRad Bio-Plex System, model # Luminex 100 and Bio-Plex Manager 4.1.1 software.

[7] = tested on: markers of bone resorption; conditions: bone samples, healthy human volunteers, orally dosed; cited from earlier work
[8] = tested on: insulin sensitivity; conditions: humans; cited from earlier work
[9] = tested on: inflammation, tissue destruction, bone erosion; conditions: animal models of RA; cited from earlier work
[10] = prednisolone 0.5 mg/kg, p < 0.05 vs. vehicle control
[11] = prednisolone 5 mg/kg, p < 0.05 vs. (−) inhibitor

IC50 [1]: > 30000 nM | IC50 ([2]; human enzyme, SPA): 35 nM
Compound: CC(C)(C(=O)NC1C2CC3CC1CC(C(N)=O)(C3)C2)N1CCN(c2cnccn2)CC1 (centres unmarked) [(E)-4-{[2-methyl-2-(4-pyrazin-2-ylpiperazin-1-yl)propanoyl]amino}adamantane-1-carboxamide]

IC50 [1]: > 30000 nM | IC50 ([2]; human enzyme, SPA): 37 nM
Compound: CC(C)(C(=O)N[C@@H]1[C@@H]2C[C@@H]3C[C@H]1C[C@@](C(N)=O)(C3)C2)N1CCN(c2ccccn2)CC1 [(E)-4-{[2-methyl-2-(4-pyridin-2-ylpiperazin-1-yl)propanoyl]amino}adamantane-1-carboxamide]

Compound: CC(C)(Oc1ccc(F)cc1Cl)C(=O)NC1C2CC3CC1CC(S(C)(=O)=O)(C3)C2 (centres unmarked) [Compound B, 2-(2-chloro-4-fluorophenoxy)-2-methyl-N-[(E)-5-(methylsulfonyl)-2-adamantyl]propanamide]
% Inhibition of TNFα, (+) Inhibitor ([3]; prednisolone 0.5 mg/kg): 80% | % Inhibition of TNFα, (+) Inhibitor ([3]; prednisolone 5 mg/kg): 98% | % Inhibition of TNFα, (+) Inhibitor ([3]; prednisolone […]): 94% | % Inhibition of MAR, (+) Inhibitor ([4]; prednisolone 0.5 mg/kg): 9% | % Increase in BFR/BV, (+) Inhibitor [4, 10]: 47%^# | % Increase in dLS/BS, (+) Inhibitor [4, 10]: 22%^# | % Inhibition of MAR, (+) Inhibitor ([4]; prednisolone 5 mg/kg): 23% | % Increase in BFR/BV, (+) Inhibitor [4, 11]: 30%* | % Increase in dLS/BS, (+) Inhibitor ([4]; prednisolone 5 mg/kg, p < 0.05 vs. vehicle control): 46%^# | % Inhibition of P1NP, (+) Inhibitor ([5]; prednisolone 0.5 mg/kg p.o. daily 28 days): 25% | % Inhibition of P1NP, (+) Inhibitor ([5]; prednisolone […] p.o. daily 28 days): 28% | % Inhibition of Osteocalcin, (+) Inhibitor ([6]; prednisolone 0.5 mg/kg): 18% | % Inhibition of Osteocalcin, (+) Inhibitor [6, 11]: 28%*

IC50 [1]: 21000 nM | IC50 ([2]; human enzyme, SPA): 43 nM
Compound: CC(C)(Oc1ccc(Cl)cc1)C(=O)N[C@@H]1[C@@H]2C[C@@H]3C[C@H]1C[C@@](CC(N)=O)(C3)C2 [N-[(E)-5-(2-amino-2-oxoethyl)-2-adamantyl]-2-(4-chlorophenoxy)-2-methylpropanamide]

IC50 [1]: > 100000 nM | IC50 ([2]; human enzyme, SPA): 89 nM
Compound: CC(C)(Oc1ccc(F)cc1Cl)C(=O)N[C@@H]1[C@@H]2C[C@@H]3C[C@H]1C[C@@](S(N)(=O)=O)(C3)C2 [N-[(E)-5-(aminosulfonyl)-2-adamantyl]-2-(2-chloro-4-fluorophenoxy)-2-methyl-propanamide]

IC50 [1]: > 10000 nM | IC50 [2]: 140 nM
Compound: O=C(CN1CCN(c2ccc(C(F)(F)F)cn2)CC1)NC1C2CC3CC1CC(F)(C3)C2 (centres unmarked) [N-[(E)-5-fluoro-2-adamantyl]-2-{4-[5-(trifluoromethyl)pyridin-2-yl]piperazin-1-yl}acetamide]

IC50 [1]: > 30000 nM | IC50 ([2]; human enzyme, SPA): 67 nM
Compound: CC(C(=O)NC1C2CC3CC1CC(NS(C)(=O)=O)(C3)C2)N1CCN(c2ccc(C(F)(F)F)cn2)CC1 (centres unmarked) [N-{(E)-5-[(methylsulfonyl)amino]-2-adamantyl}-2-{4-[5-(trifluoromethyl)pyridin-2-yl]piperazin-1-yl}propanamide]

IC50 [1]: > 10000 nM | IC50 [2]: 82 nM
Compound: O=C(CN1CCN(c2ccc(C(F)(F)F)cn2)CC1)N[C@H]1[C@@H]2C[C@@H]3C[C@H]1C[C@@](F)(C3)C2 [N—[(Z)-5-fluoro-2-adamantyl]-2-{4-[5-(trifluoromethyl)pyridin-2-yl]piperazin-1-yl}acetamide]

Compound: CC1(C)[C@@H](OC(=O)CCC(=O)O)CC[C@]2(C)[C@H]3C(=O)C=C4[C@@H]5C[C@@](C)(C(=O)O)CC[C@]5(C)CC[C@@]4(C)[C@]3(C)CC[C@@H]12 [carbenoxolone]
markers of bone resorption [7]: significant decrease in markers of bone resorption | insulin sensitivity [8]: improves insulin sensitivity

Compound: CC1(C)[C@@H](O)CC[C@]2(C)[C@H]3C(=O)C=C4[C@@H]5C[C@@](C)(C(=O)O)CC[C@]5(C)CC[C@@]4(C)[C@]3(C)CC[C@@H]12 [glycyrrhetinic acid]
effect on inflammation, tissue destruction and bone erosion [9]: reduced inflammation and tissue destruction as well as bone erosion

IC50 [1]: > 10000 nM | IC50 ([2]; human enzyme, SPA): 80 nM
Compound: CC(C)(C(=O)N[C@@H]1[C@@H]2C[C@@H]3C[C@H]1C[C@@](CC(=O)O)(C3)C2)N1CCN(c2ccc(C(F)(F)F)cn2)CC1 [{(E)-4-[(2-methyl-2-{4-[5-(trifluoromethyl)pyridin-2-yl]piperazin-1-yl}propanoyl)amino]-1-adamantyl}acetic acid]
